Several values for one entry are separate records, joined by “and”; a condition that tells them apart may be missing. Equal values may be shown once.
Assays:
U-937/Bcl-2 cells = test: MTT cytotoxicity assay, U-937/Bcl-2; format: cell-based, human; conditions: Homo sapiens, U-937, 72 h, means ± SEM
Source text: (§1) U-937, HL-60, MOLT-3, NALM-6, and SK-MEL-1 cells were from DSMZ (German Collection of Microorganisms and Cell Cultures, Braunschweig, Germany). U-937/Bcl-2 cells were kindly provided by Dr. Jacqueline Bréard (INSERM U749, Faculté de Pharmacie Paris-Sud, Châtenay-Malabry, France). The U-937 is a pro-monocytic, human promyelocytic leukemia cell line that was isolated from a histiocytic lymphoma. HL-60 is a human acute myeloid leukemia cell line. MOLT-3 is a human acute lymphoblastic leukemia cell line. NALM-6 is a human B cell precursor leukemia. SK-MEL-1 is a human melanoma cell line growing singly or in clumps (occasional giant, polynucleated cell) in suspension. Cells were cultured in RPMI 1640 medium containing 10% (v/v) heat-inactivated fetal bovine serum, 100 μg/mL streptomycin, and 100 U/mL penicillin, incubated at 37 °C in a humidified atmosphere containing 5% CO2 as described. The doubling times of the cell lines were 24 h in HL-60, 30 h in U-937, U-937/Bcl-2, 40 h in MOLT-3 and NALM-6, and several days in SK-MEL-1 cells. Human peripheral blood mononuclear cells (PBMC) were isolated from heparin-anticoagulated blood of healthy volunteers by centrifugation with Ficoll-Paque Plus (GE Healthcare Bio-Sciences AB, Uppsala, Sweden). PBMC were also stimulated with phytohemagglutinin (2 µg/mL) for 48 h before the experimental treatment. The trypan blue exclusion method was used for counting the cells by a hemocytometer with 95% viability in all the experiments. Compounds were dissolved in dimethyl sulfoxide (DMSO) and kept under dark conditions at 25 °C. […] The cytotoxicity of the synthetic compounds was evaluated by colorimetric 3-(4,5-dimethyl-2-thiazolyl-)-2,5-diphenyl-2H-tetrazolium bromide (MTT) assay as previously described. Briefly, cells (5000 per well) were incubated with increasing concentrations of compounds for 72 h into a 96-well plate. Then, the supernatants were removed and 0.5 mg/mL MTT was added and incubated for 4 h at 37 °C. Sodium dodecyl sulfate (10% w/v) in 0.05 M HCl was added to solubilize the reaction products and the absorbance was measured at 570 nm with a reference wavelength of […] using an ELISA reader (Bio-Rad, Hercules, CA, USA). The IC50 values (concentrations inducing a 50% inhibition of cell viability) were determined graphically for each experiment by a nonlinear regression using the curve fitting routine implemented within the software Prism 5.0 (GraphPad, La Jolla, CA, USA).

U-937 cells = test: MTT cytotoxicity assay, U-937; format: cell-based; conditions: Homo sapiens, U-937, 72 h, means ± SEM
Source text: as §1

MOLT-3 cells = test: MTT cytotoxicity assay, MOLT-3; format: cell-based, human; conditions: Homo sapiens, MOLT-3, 72 h, means ± SEM
Source text: as §1

NALM-6 cells = test: MTT cytotoxicity assay, NALM-6; format: cell-based, human; conditions: for IC50: Homo sapiens, NALM-6, 72 h, 72 h, MTT, means ± SEM
Source text: as §1

SK-MEL-1 cells = test: MTT cytotoxicity assay, SK-MEL-1; format: cell-based, human; conditions: Homo sapiens, SK-MEL-1, 72 h, means ± SEM
Source text: as §1

HL-60 cells = test: MTT cytotoxicity assay, HL-60; format: cell-based; conditions: Homo sapiens, HL-60, 72 h, means ± SEM
Source text: as §1

U-937 leukemia cells = test: Cell cycle and sub-G1 analysis by flow cytometry (propidium iodide); format: cell-based, human; conditions: 24 h; for %G1 / %G2-M / %S / %Sub-G1 / fold increase of sub-G1 cells over control: 10 µM; for %G1 / %G2-M / %S / %Sub-G1: U-937, means ± S.E.; for cell cycle arrest: U-937, 10 µM; for fold increase of sub-G1 cells over control: U-937
Protocol: Cells (2.5 × 10^5) were centrifuged for 10 min at 500× g, washed with cold PBS, fixed with ice-cold 75% ethanol and stored at −20 °C overnight. Samples were then centrifuged at 500× g for 10 min at 4 °C, washed with PBS, resuspended in 200 μL of PBS containing 100 μg/mL RNase and 50 μg/mL propidium iodide and incubated for 1 h in the dark. The DNA content was analyzed by flow cytometry with a BD FACSVerse^TM cytometer (BD Biosciences, San Jose, CA, USA). Apoptosis was also evaluated by flow cytometric analysis of double-staining annexin V-FITC and propidium iodide cells as previously described.

[1] = tested on: six human cancer cell lines; test: MTT cytotoxicity assay, all cell lines assayed (summary statements); format: cell-based; conditions: 72 h, MTT
Source text: U-937, HL-60, MOLT-3, NALM-6, and SK-MEL-1 cells were from DSMZ (German Collection of Microorganisms and Cell Cultures, Braunschweig, Germany). U-937/Bcl-2 cells were kindly provided by Dr. Jacqueline Bréard (INSERM U749, Faculté de Pharmacie Paris-Sud, Châtenay-Malabry, France). The U-937 is a pro-monocytic, human promyelocytic leukemia cell line that was isolated from a histiocytic lymphoma. HL-60 is a human acute myeloid leukemia cell line. MOLT-3 is a human acute lymphoblastic leukemia cell line. NALM-6 is a human B cell precursor leukemia. SK-MEL-1 is a human melanoma cell line growing singly or in clumps (occasional giant, polynucleated cell) in suspension. Cells were cultured in RPMI 1640 medium containing 10% (v/v) heat-inactivated fetal bovine serum, 100 μg/mL streptomycin, and 100 U/mL penicillin, incubated at 37 °C in a humidified atmosphere containing 5% CO2 as described. […] The cytotoxicity of the synthetic compounds was evaluated by colorimetric 3-(4,5-dimethyl-2-thiazolyl-)-2,5-diphenyl-2H-tetrazolium bromide (MTT) assay as previously described. […] Sodium dodecyl sulfate (10% w/v) in 0.05 M HCl was added to solubilize the reaction products and the absorbance was measured at 570 nm with a reference wavelength of […] using an ELISA reader (Bio-Rad, Hercules, CA, USA). […]

Compound	IC50 (U-937/Bcl-2 cells) [µM]	IC50 (U-937 cells) [µM]	IC50 (MOLT-3 cells) [µM]	IC50 (NALM-6 cells) [µM]	IC50 (SK-MEL-1 cells) [µM]	IC50 (HL-60 cells) [µM]	increase in cytotoxicity on substitution of p-tosyl-sulfonyl group (6b) by phenyl group (NALM-6 cells; NALM-6, IC50 ratio 6b vs 6h)	%G1 (U-937 leukemia cells) [%]	%G2-M (U-937 leukemia cells)	%S (U-937 leukemia cells) [%]	%Sub-G1 (U-937 leukemia cells)	cell cycle arrest (U-937 leukemia cells)	cytotoxicity against the cancer cell lines assayed [1]	fold increase of sub-G1 cells over control (U-937 leukemia cells)
Cc1ccc(S(=O)(=O)NC(=Nc2ccc(/C=C/C(=O)c3c(O)cccc3OCc3ccccc3)cc2)N2CCCCC2)cc1 [Compound 6d]	24.6 ± 5.4	> 30	3.3 ± 0.6	6.6 ± 1.2	> 30	28.5 ± 14.3	–	–	–	–	–	–	–	–
CC(C)N(/C(=N/c1ccc(/C=C/C(=O)c2c(O)cccc2OCc2ccccc2)cc1)Nc1ccccc1)C(C)C [Compound 6h]	14 ± 6.6	10.6 ± 2.6	4.3 ± 0.5	5.4 ± 0.2	5.2 ± 1	5.2 ± 0.9	five-fold	53.7 ± 0.4	9.2 ± 0.5 %	29.5 ± 0.3	7.2 ± 1.1 %	not caused by a significant cell cycle arrest in any phase	–	–
COc1cccc2c1C(=O)c1c(O)c3c(c(O)c1C2=O)C[C@@](O)(C(=O)CO)C[C@@H]3O[C@H]1C[C@H](N)[C@H](O)[C@H](C)O1 [Doxorubicin, reference compound]	–	0.1	–	–	0.3 ± 0.1	–	–	–	–	–	–	–	–	–
[N-]=[N+]=Nc1ccc(/C=C/C(=O)c2c(O)cccc2OCc2ccccc2)cc1 [Compound 3]	> 30	> 30	7.4 ± 0.4	11.6 ± 1.6	> 30	> 30	–	–	–	–	–	–	–	–
CCCCCCCCCCCCCCCCCCNC(=Nc1ccc(/C=C/C(=O)c2c(O)cccc2OCc2ccccc2)cc1)NS(=O)(=O)c1ccc(C)cc1 [Compound 6g]	> 30	> 30	> 30	> 30	> 30	> 30	–	–	–	–	–	–	not cytotoxic	–
COc1cc([C@@H]2c3cc4c(cc3[C@@H](O[C@@H]3O[C@@H]5CO[C@@H](C)O[C@H]5[C@H](O)[C@H]3O)[C@H]3COC(=O)[C@H]23)OCO4)cc(OC)c1O [Etoposide, reference compound]	–	1.8 ± 0.2	0.2 ± 0.1	–	9 ± 3	0.6 ± 0.2	–	–	–	–	–	–	–	–
CN1CCN(C(=Nc2ccc(/C=C/C(=O)c3c(O)cccc3OCc3ccccc3)cc2)Nc2ccccc2)CC1 [Compound 6k]	14 ± 5.1	14 ± 1.1	21.7 ± 6.5	24.8 ± 3.3	> 30	11.4 ± 5.5	–	–	–	–	–	–	–	–
Cc1ccc(S(=O)(=O)NC(=Nc2ccc(/C=C/C(=O)c3c(O)cccc3OCc3ccccc3)cc2)N(C)c2ccccc2)cc1 [Compound 6c]	4.2 ± 1.2	9.5 ± 5.3	2.5 ± 0.2	9.9 ± 3.1	> 30	4.2 ± 0.5	–	37.4 ± 0.3	11.4 ± 0.4%	27.0 ± 0.7	23.5% and 23.5 ± 1.2 %	not caused by a significant cell cycle arrest in any phase	–	~ 10 fold
Cc1ccc(S(=O)(=O)NC(=Nc2ccc(/C=C/C(=O)c3c(O)cccc3OCc3ccccc3)cc2)N(C(C)C)C(C)C)cc1 [Compound 6b]	11.7 ± 7	18.5 ± 9.6	2 ± 0.7	27 ± 0.8	> 30	20.5 ± 9.5	–	–	–	–	–	–	–	–
Cc1ccc(S(=O)(=O)NC(=Nc2ccc(/C=C/C(=O)c3c(O)cccc3OCc3ccccc3)cc2)N2CCOCC2)cc1 [Compound 6e]	2.3 ± 0.9	5.4 ± 2.1	3.2 ± 1.5	3.1 ± 0.5	14.3 ± 5.7	3.8 ± 1.1	–	36.5 ± 2.3	27% and 27.3 ± 2.0 %	23.6 ± 0.5	11.9% and 11.9 ± 0.2 %	induced an arrest at the G2-M phase	–	~ 5 fold
Cc1ccc(S(=O)(=O)NC(=Nc2ccc(/C=C/C(=O)c3c(O)cccc3OCc3ccccc3)cc2)NC(C)C)cc1 [Compound 6a]	2.9 ± 0.2	11.4 ± 6.5	2.9 ± 1.1	2.9 ± 0.5	> 30	3.7 ± 1.6	–	–	–	–	–	–	–	–
O=C(/C=C/c1ccc(N=C(Nc2ccccc2)N2CCOCC2)cc1)c1c(O)cccc1OCc1ccccc1 [Compound 6j]	11.7 ± 3.4	8.6 ± 1.1	1.8 ± 0.5	4.1 ± 0.5	5.4 ± 0.8	6.2 ± 1.7	–	51.3 ± 1.1	11.5 ± 0.1%	32.0 ± 0.4	4.7 ± 0.6%	–	–	–

Source: PMC9779571, “Guanidine Derivatives Containing the Chalcone Skeleton Are Potent Antiproliferative Compounds against Human Leukemia Cells” (International Journal of Molecular Sciences, 2022)
